{"source": "patent US20110003865A1", "about": "“NOVEL 2-DIETHYLAMINO-3-AMIDO-6-AMINO-PYRIDINE DERIVATIVES USEFUL AS POTASSIUM CHANNEL ACTIVATORS” (priority 2007, published 2011)", "data": [{"target": "T1, human Kv72+3 channels (Homo sapiens, UniProt O43525+O43526)", "T1 construct": "expressed in transfected cells; host or cells: HEK293", "T1 sequence (O43526 whole entry)": "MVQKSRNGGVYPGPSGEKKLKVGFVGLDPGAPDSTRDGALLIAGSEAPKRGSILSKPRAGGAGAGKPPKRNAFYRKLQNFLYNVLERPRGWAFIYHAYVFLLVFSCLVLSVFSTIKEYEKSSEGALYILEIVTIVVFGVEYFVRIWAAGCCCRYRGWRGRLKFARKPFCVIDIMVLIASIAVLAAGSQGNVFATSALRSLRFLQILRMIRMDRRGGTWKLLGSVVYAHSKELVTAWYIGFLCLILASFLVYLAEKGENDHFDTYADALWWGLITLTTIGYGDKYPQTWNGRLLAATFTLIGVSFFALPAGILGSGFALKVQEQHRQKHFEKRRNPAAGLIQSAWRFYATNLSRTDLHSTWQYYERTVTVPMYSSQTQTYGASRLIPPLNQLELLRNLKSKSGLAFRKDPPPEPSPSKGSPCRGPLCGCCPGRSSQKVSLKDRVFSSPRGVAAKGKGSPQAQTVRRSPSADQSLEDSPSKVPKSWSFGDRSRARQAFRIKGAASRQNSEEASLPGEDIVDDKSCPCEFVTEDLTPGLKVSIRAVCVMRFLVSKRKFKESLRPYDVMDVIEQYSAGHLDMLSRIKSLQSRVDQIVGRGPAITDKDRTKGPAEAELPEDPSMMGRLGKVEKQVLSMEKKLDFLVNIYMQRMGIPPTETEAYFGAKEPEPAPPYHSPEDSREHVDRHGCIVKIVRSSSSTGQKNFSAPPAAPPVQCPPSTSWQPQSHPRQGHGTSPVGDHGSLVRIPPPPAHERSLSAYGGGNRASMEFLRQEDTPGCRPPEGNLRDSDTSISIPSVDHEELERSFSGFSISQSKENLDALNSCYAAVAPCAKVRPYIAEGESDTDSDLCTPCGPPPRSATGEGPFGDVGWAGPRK", "T1 sequence (O43525 whole entry)": "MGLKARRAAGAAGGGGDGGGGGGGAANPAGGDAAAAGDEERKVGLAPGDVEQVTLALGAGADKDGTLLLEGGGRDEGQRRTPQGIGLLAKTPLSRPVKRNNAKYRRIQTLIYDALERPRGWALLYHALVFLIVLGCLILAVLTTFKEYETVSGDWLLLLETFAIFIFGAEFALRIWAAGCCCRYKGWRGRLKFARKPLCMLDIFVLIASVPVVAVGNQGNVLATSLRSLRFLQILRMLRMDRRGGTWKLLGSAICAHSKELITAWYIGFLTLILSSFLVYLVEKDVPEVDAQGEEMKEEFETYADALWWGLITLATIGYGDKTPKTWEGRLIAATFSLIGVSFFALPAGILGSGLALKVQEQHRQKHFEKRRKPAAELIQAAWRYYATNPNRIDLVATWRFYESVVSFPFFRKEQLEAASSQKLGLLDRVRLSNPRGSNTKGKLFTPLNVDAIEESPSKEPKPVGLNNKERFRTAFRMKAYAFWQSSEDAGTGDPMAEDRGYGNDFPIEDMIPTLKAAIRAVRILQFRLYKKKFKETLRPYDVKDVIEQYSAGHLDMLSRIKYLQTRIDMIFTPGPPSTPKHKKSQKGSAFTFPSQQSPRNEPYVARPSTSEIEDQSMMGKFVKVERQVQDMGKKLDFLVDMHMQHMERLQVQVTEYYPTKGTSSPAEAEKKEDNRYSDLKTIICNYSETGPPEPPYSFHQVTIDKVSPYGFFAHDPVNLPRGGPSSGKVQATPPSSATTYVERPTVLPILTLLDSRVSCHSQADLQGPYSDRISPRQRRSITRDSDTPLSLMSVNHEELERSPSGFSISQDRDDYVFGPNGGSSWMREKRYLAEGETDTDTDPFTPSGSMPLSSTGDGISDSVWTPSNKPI", "test": "Patch-clamp, HEK293 cells stably expressing human Kv7.2+3 channels", "format": "cell-based", "conditions": "conc. 0.03 μM, −30 mV, 20 ms; current relative to baseline current defined as 100%", "excerpt": "The effect obtained by these channel activators is described as a percentage increase in baseline current at a given concentration. The baseline current is defined as 100%, and an increase in current is expressed relative to this, i.e. an increase from 1 nA to 1.2 nA is reported as 120%.", "units": {"IK (%)": "%"}, "values": [{"compound": "CCN(CC)c1nc(NCc2ccc(F)cc2)ccc1NC(=O)Cc1cc(F)cc(F)c1", "note": "[Compound 1, N-[2-Diethylamino-6-(4-fluoro-benzylamino)-pyridin-3-yl]-2-(3,5-difluoro-phenyl)-acetamide]", "IK (%)": 1247}, {"compound": "CCN(CC)c1nc(NCc2ccc(F)cc2)ccc1NC(=O)[C@@H](C)c1ccccc1", "note": "[Compound 4, (S)—N-[2-Diethylamino-6-(4-fluoro-benzylamino)-pyridin-3-yl]-2-phenyl-propionamide]", "IK (%)": 334}, {"compound": "CCN(CC)c1nc(NCc2ccc(F)cc2)ccc1NC(=O)CC(C)(C)C", "note": "[Compound 9, N-[2-Diethylamino-6-(4-fluoro-benzylamino)-pyridin-3-yl]-3,3-dimethyl-butyramide]", "IK (%)": 550}, {"compound": "CCN(CC)c1nc(NCc2ccc(F)cc2)ccc1NC(=O)[C@@H]1C[C@H]1c1ccccc1", "note": "(relative stereo) [Compound 7, trans-2-Phenyl-cyclopropanecarboxylic acid [2-diethylamino-6-(4-fluoro-benzylamino)-pyridin-3-yl]-amide]", "IK (%)": 520}, {"compound": "CCN(CC)c1nc(NCc2ccc(F)cc2)ccc1NC(=O)Cc1ccc(C(F)(F)F)c(F)c1", "note": "[Compound 3, N-[2-Diethylamino-6-(4-fluoro-benzylamino)-pyridin-3-yl]-2-(3-fluoro-4-trifluoromethyl-phenyl)-acetamide]", "IK (%)": 282}]}]}
